Patent US20190307818A1, “NOVEL ANTIMICROBIAL COMPOSITIONS AND METHODS OF USE” (priority 2016, published 2019)

Tests used:
cas3 = cas3 expression by qRT-PCR; type: cell-based, Pseudomonas aeruginosa PA14; settings: ΔlasI ΔrhII mutant; 100 μM 3-O—C12-HSL and 100 μM C4-HSL given together; normalized to 5S ribosomal RNA
Protocol: In one example protocol, P. aeruginosa PA14 and mutants were grown overnight at 37° C. with shaking in LB broth. Cultures were back diluted 1:100 and grown to the indicated OD600 in the presence or absence of DMSO, 3-O—C12-HSL, C4—HSL (Sigma) or Baicalein (Cayman Chemical) at the specified concentrations. LB was supplemented with 50 μg/ml Gentamicin where appropriate.
For Quantitative Real Time-PCR (qRT-PCR), bacteria were harvested at the indicated OD600. RNA was purified using Trizol (Ambion), DNAse treated using DNA-free (Ambion), cDNA was synthesized using SuperScript® III Reverse Transcriptase (Invitrogen) and quantified using PerfeCTa® SYBR® Green FastMix®, Low ROX (Quanta Biociences).
Quantitative Real Time-PCR (qRT-PCR) was utilized to determine the relative expression of cas3 in each of these mutant strains. Additionally, 100 μM 3-O—C12-HSL and 100 μM C4-HSL, which are AIs that rescue cas3 expression, were added to the cell culture comprising the mutant strain ΔlasI ΔrhII. It is understood that other concentrations of 3-O—C12-HSL and C4—HSL are also suitable, e.g., the concentrations may be in the range of 2 μM to 100 μM, from 10 μM to 100 μM or from 2 μM to 10 μM. In some embodiments, 2 μM of 3-O—C12-HSL and 10 μM of C4-HSL were used. The expression profiles for cas3 for each strain were then normalized based on expression of 5S ribosomal RNA. […]

CRISPR-Cas system = assay: Transformation assay, efficiency of transformation (EOT); type: cell-based, P. aeruginosa PA14; settings: ΔlasI ΔrhII mutant; both AIs added together
Protocol: Bacteria were grown to the appropriate OD600, washed twice at RT in 300 mM sucrose, and electroporated with 1 μg empty vector plasmid pHERD30T or pCR2SP1 containing a phage-derived sequence specifically targeted for degradation by CRISPR-Cas (Bondy-Denomy, Pawluk et al. 2013). 1 ml LB was added and the bacteria were grown 1 h at 37° C. with shaking, after which they were plated on selective medium, e.g., LB medium containing 50 μg/ml gentamicin, and incubated overnight at 37° C. Bacterial colonies were counted using Image Quant Las 4000 and Image Quant TL software (GE Healthcare). Colony forming units (CFU)/ml were quantified and the efficiency of transformation was calculated as the percentage of colonies transformed by pCR2SP1 compared to those transformed by the empty vector control pHERD30T.
This assay utilizes a plasmid as a proxy for a phage, to quantify the frequency with which a foreign genetic material is identified and targeted for degradation by the host bacterial immune system. For bacterial cells having a functional CRISPR-Cas system, the plasmid will be targeted for destruction, and no colonies will grow on the plate, as antibiotic resistance has been lost.
For cells lacking a CRISPR-Cas system or having an impaired or partially functioning CRISPR-Cas system, the electroporated plasmid evades destruction by the bacterial host and is able to replicate. […]

[1] = tested on: P. aeruginosa PA14 ΔlasI ΔrhII CRISPR adaptation; assay: CRISPR adaptation (new spacer integration by PCR); type: cell-based; settings: ΔlasI ΔrhII strain; AIs 2 μM 3-O—C12-HSL+10 μM C4-HSL given together; Baicalein 100 μM with AIs; vs DMSO
Protocol: FIG. 3. QS inhibitors block CRISPR adaptation and disable QS-mediated bacterial immunity. A P. aeruginosa PA14 ΔlasI ΔrhII QS deficient strain was transformed with foreign DNA (e.g., a CRISPR-targeted plasmid). A single colony from the transformation was re-streaked on selective media containing either DMSO (as a control), AIs (2 μM 3-O—C12-HSL+10 μM C4-HSL), or AIs and a QS inhibitor (2 μM 3-O—C12-HSL+10 μM C4-HSL+100 μM Baicalein). Single colonies were tested for integration of new inserted spacers (conferring immunity) against the CRISPR-targeted plasmid. In particular, PCR primers were designed to amplify specific genomic regions into which spacers were inserted. Primers complementary to the region upstream of the CRISPR region and to the second spacer region were designed, and PCR amplification was utilized to test for the presence of the newly inserted spacer (a process referred to as adaptation).
A P. aeruginosa PA14 ΔlasI ΔrhII QS deficient strain was transformed with foreign DNA (e.g., a CRISPR-targeted plasmid such as pCR2SP1, as described above). A single colony from the transformation was re-streaked on selective medium, e.g., LB medium containing 50 μg/ml gentamicin and either DMSO (as a control), AIs (2 μM 3-O—C12-HSL+10 μM C4-HSL), or both AIs and a QS inhibitor (2 μM 3-O—C12-HSL+[…] C4-HSL+100 μM Baicalein QS inhibitor) and incubated at 37° C. O/N. Single colonies were tested for integration of new immunity spacers against the CRISPR-targeted plasmid by PCR using iProof High-Fidelity DNA Polymerase (Bio-Rad) and primers CR2SP check F+R upstream of the CRISPR2 region and in the second spacer. Thus, PCR primers were designed to amplify the genomic region in which the new spacer was present. Primers targeting a sequence upstream of the CRISPR-Cas region and targeting the second spacer region were designed, and PCR amplification was utilized to test for the presence of the new inserted spacer (a portion of the plasmid sequence inserted between the CRISPR locus and spacers). […]

[2] = tested on: Wild-type P. aeruginosa pyocyanin production; settings: previously shown; cited from earlier work

CCCCCCCCCC(=O)CC(=O)N[C@H]1CCOC1=O [3-O—C12-HSL]
cas3 expression (cas3): restore cas3 expression to WT levels | immune activity (efficiency of transformation) (CRISPR-Cas system): restored immune activity to nearly WT levels | CRISPR adaptation (fraction of cells in the colony that adapted) [1]: increased the fraction of cells in the colony that adapted

CCCC(=O)N[C@H]1CCOC1=O [Molecule C4-HSL, N-butyryl-L-homoserine lactone]
cas3 expression (cas3): restore cas3 expression to WT levels | immune activity (efficiency of transformation) (CRISPR-Cas system): restored immune activity to nearly WT levels | CRISPR adaptation (fraction of cells in the colony that adapted) [1]: increased the fraction of cells in the colony that adapted

meta-bromothiolactone [mBTL]
pyocyanin production [2]: inhibit pyocyanin production
